A word on the EC50: it is the concentration at which the effect is half-maximal. Broadly, the IC50 is the point on the concentration scale where inhibition reaches its midpoint.

Where only a bound is given, the exact number is not on record here.

The subject of assay [1] is Axin2 accumulation in SW480 cells. As to the kind of experiment: Axin2 384 immunofluorescence assay. The format is cell-based. The conditions noted are these: Homo sapiens; SW480 cells, 24 hours; read-out: Axin2 384 IF EC50.
In the next assay the target is PARP2 (Homo sapiens (Human), UniProt Q9UGN5). As to the kind of experiment: PARP2 biochemical assay (BPS kit).
Sequence of PARP2 (Q9UGN5 whole entry): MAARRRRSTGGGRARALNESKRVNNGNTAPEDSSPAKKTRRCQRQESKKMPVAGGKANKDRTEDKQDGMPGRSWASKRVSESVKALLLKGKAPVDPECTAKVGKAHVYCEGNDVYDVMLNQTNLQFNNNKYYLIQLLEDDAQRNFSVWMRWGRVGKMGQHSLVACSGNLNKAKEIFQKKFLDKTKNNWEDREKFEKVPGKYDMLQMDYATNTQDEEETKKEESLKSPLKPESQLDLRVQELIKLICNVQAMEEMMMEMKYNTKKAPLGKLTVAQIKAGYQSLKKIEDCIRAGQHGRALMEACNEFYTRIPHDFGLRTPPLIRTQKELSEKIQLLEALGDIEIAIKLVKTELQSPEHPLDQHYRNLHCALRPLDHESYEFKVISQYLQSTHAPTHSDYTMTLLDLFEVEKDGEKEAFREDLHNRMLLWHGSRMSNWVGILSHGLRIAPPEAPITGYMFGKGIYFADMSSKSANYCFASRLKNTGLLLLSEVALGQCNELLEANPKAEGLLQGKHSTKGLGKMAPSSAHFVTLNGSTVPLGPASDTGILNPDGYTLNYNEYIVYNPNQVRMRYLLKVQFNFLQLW
Assay [2] concerns total β-catenin in SW480 colorectal cells. As to the kind of experiment: Total β-catenin MSD 96-well plate assay for SW480 cells. The conditions noted are these: Homo sapiens, SW480, read-out: SW480-Total beta-catenin (TBC) IC50 IP.
In a further assay the target is PARP1 (Homo sapiens (Human), UniProt P09874). As to the kind of experiment: PARP1 biochemical assay (Trevigen kit). An excerpt: PARP1 biochemical assay was purchased as a kit from Trevigen (cat.#4676-096-K) and used per manufacturers recommendations.
Sequence of PARP1 (P09874 whole entry): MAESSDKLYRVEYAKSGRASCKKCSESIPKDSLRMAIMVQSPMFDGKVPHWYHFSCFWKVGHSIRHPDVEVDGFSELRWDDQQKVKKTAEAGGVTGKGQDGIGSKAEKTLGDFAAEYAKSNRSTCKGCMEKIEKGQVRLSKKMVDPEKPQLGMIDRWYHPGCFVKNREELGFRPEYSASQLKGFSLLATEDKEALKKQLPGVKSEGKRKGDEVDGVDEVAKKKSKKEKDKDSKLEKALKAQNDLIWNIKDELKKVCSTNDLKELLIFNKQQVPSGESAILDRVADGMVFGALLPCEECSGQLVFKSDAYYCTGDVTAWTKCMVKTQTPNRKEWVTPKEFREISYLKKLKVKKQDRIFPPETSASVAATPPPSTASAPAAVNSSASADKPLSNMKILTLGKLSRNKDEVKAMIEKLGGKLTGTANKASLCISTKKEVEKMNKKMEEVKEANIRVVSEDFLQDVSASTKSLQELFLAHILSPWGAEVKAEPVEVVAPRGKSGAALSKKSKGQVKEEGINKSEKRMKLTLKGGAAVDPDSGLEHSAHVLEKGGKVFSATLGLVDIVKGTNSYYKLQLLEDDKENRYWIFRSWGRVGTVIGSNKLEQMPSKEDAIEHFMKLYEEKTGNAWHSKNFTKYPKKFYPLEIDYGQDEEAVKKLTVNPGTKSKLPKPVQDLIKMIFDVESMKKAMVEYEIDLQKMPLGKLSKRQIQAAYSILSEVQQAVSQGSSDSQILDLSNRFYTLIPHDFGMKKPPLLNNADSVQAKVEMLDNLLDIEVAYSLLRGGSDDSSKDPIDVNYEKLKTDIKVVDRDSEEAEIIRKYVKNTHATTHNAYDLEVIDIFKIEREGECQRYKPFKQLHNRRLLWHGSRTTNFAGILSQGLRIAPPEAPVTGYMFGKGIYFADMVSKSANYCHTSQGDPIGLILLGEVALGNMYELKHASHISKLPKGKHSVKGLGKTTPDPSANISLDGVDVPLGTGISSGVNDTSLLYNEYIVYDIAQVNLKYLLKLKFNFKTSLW
For assay [3], the target named is 6×HIS-tankyrase 2 (946-1162) (Homo sapiens (Human), UniProt Q9H2K2). Description: Tankyrase 2 biochemical assay (AlphaLisa, PARsylation). The conditions noted are these: 250 nM NAD; read-out: TNKS2 IC50.
Sequence of 6×HIS-tankyrase 2 (946-1162) (Q9H2K2 946-1162): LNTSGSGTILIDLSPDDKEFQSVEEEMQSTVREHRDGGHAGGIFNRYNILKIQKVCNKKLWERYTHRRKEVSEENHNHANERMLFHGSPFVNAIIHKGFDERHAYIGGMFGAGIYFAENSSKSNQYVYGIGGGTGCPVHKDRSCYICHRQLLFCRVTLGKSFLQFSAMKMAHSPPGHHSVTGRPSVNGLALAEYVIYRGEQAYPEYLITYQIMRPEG

Take `O=C(CCc1nc2ccccc2c(=O)[nH]1)N[C@H]1CC[C@H](c2nnc(-c3ccccc3)o2)CC1` [Example 2, 3-(4-oxo-3,4-dihydro-2-quinazolinyl)-N-(trans-4-(5-phenyl-1,3,4-oxadiazol-2-yl)cyclohexyl)propanamide]: the 50% effective concentration (EC50) in assay [1] was 642 nM. Also, the IC50 against PARP2 stood at 982 nM; in assay [2] it was 79.7 nM; against PARP1, 2700 nM.
For `O=C(CCCc1nc2ccccc2c(=O)[nH]1)N[C@H]1CC[C@H](c2nnc(-c3ccc(F)cc3)o2)CC1` [Example 28, N-(trans-4-(5-(4-fluorophenyl)-1,3,4-oxadiazol-2-yl)cyclohexyl)-4-(4-oxo-3,4-dihydro-2-quinazolinyl)butanamide], the EC50 in assay [1] came out at 18.5 nM. Besides, the results for the IC50 (against PARP2; in assay [3]; in assay [2]) were 1760 nM, 0.303 nM and 15.9 nM, respectively.
On to `O=C(CCc1nc2ncccc2c(=O)[nH]1)N[C@H]1CC[C@H](c2nnc(-c3ccccc3)o2)CC1` [Example 81, 3-(4-oxo-3,4-dihydropyrido[2,3-d]pyrimidin-2-yl)-N-((1r,4r)-4-(5-phenyl-1,3,4-oxadiazol-2-yl)cyclohexyl) propanamide], for which the EC50 in assay [1] came out at 8750 nM. Further, the IC50 against PARP2 amounted to 8450 nM; in assay [2] it was 1950 nM.
`O=C(CCc1nc2c(c(=O)[nH]1)CCCN2)N[C@H]1CC[C@H](c2nnc(-c3ccccc3)o2)CC1` [Example 88, 3-(4-oxo-3,4,5,6,7,8-hexahydropyrido[2,3-d]pyrimidin-2-yl)-N-((1r,4r)-4-(5-phenyl-1,3,4-oxadiazol-2-yl)cyclohexyl)propanamide]: the IC50 against PARP2 amounted to 530 nM; in assay [2], 1020 nM; against PARP1, 3500 nM.
Take `O=C(CSc1nc2ccccc2c(=O)[nH]1)N[C@H]1CC[C@H](c2nnc(-c3ccccc3)o2)CC1` [Example 96, 2-((4-oxo-3,4-dihydroquinazolin-2-yl)thio)-N-((1r,4r)-4-(5-phenyl-1,3,4-oxadiazol-2-yl)cyclohexyl) acetamide]: the EC50 in assay [1] is 536 nM. Further, the results for the IC50 (against PARP2; in assay [2]; on PARP1) were 1570 nM, 91.2 nM and 28800 nM, respectively.
Regarding `O=C(CSc1nc2ccccc2c(=O)[nH]1)N[C@H]1CC[C@H](Oc2ccc(F)cc2)CC1` [Example 99, N-((1r,4r)-4-(4-fluorophenoxy)cyclohexyl)-2-((4-oxo-3,4-dihydroquinazolin-2-yl)thio) acetamide], the EC50 in assay [1] amounted to 2160 nM. The IC50 in assay [2] amounted to 2420 nM.
On to `O=C(CCSc1nc2ccccc2c(=O)[nH]1)N[C@H]1CC[C@H](Oc2ccc(F)cc2)CC1` [Example 100, N-((1r,4r)-4-(4-fluorophenoxy)cyclohexyl)-3-((4-oxo-3,4-dihydroquinazolin-2-yl)thio) propanamide], for which, in assay [1], the EC50 was determined as 22.7 nM. For the same compound, the IC50 against PARP2 was determined as 4950 nM; in assay [2] it was 16.7 nM.
For the compound `O=C(CCc1nc2ccc(F)cc2c(=O)[nH]1)N[C@H]1CC[C@H](c2nnc(-c3ccccc3)o2)CC1` [Example 101, 3-(6-fluoro-4-oxo-3,4-dihydroquinazolin-2-yl)-N-((1r,4r)-4-(5-phenyl-1,3,4-oxadiazol-2-yl)cyclohexyl)propanamide], the EC50 in assay [1] turned out to be 783 nM. In addition, the IC50 against PARP2 worked out at 421 nM; in assay [3], 15.2 nM; in assay [2], 252 nM; against PARP1, 936 nM.
As to `O=C(CCSc1nc2ccccc2c(=O)[nH]1)N[C@H]1CC[C@H](Oc2ccc(Cl)cc2)CC1` [Example 105, N-((1r,4r)-4-(4-chlorophenoxy)cyclohexyl)-3-((4-oxo-3,4-dihydroquinazolin-2-yl)thio) propanamide], the EC50 in assay [1] was found to be 35.9 nM. For the same compound, the IC50 was 20 nM in assay [2] and greater than 85000 nM on PARP1.
Regarding `N#Cc1cccc(O[C@H]2CC[C@H](NC(=O)CCSc3nc4ccccc4c(=O)[nH]3)CC2)c1` [Example 109], in assay [1], the EC50 stood at 50.9 nM. Besides, the IC50 against PARP2 is greater than 170000 nM; in assay [2] it was 47.8 nM; on PARP1, greater than 85000 nM.
For the compound `O=C(CCSc1nccc(=O)[nH]1)N[C@H]1CC[C@H](c2nnc(-c3ccccc3)o2)CC1` [Example 123, 3-((6-oxo-1,6-dihydropyrimidin-2-yl)thio)-N-((1r,4r)-4-(5-phenyl-1,3,4-oxadiazol-2-yl)cyclohexyl)propanamide], the EC50 in assay [1] was 3330 nM. Besides, the values for the IC50 (on PARP2; in assay [2]; on PARP1) were greater than 170000 nM, 2130 nM and greater than 85000 nM, respectively.
Regarding `O=C(CCSc1nc2ccccc2c(=O)[nH]1)N[C@H]1CC[C@H](c2nnc(-c3ccncc3)o2)CC1` [Example 124, 3-((4-oxo-3,4-dihydroquinazolin-2-yl)thio)-N-(trans-4-(5-(pyridin-4-yl)-1,3,4-oxadiazol-2-yl)cyclohexyl)propanamide], the EC50 in assay [1] came out at 0.666 nM. Moreover, the 50% inhibitory concentration (IC50) in assay [2] was 1.92 nM.
On to `O=C(CCc1nc2ccccc2c(=O)[nH]1)N[C@H]1CC[C@H](c2nnc(-c3ccccc3F)o2)CC1` [Example 126, N-((1r,4r)-4-(5-(2-fluorophenyl)-1,3,4-oxadiazol-2-yl)cyclohexyl)-3-(4-oxo-3,4-dihydroquinazolin-2-yl)propanamide], for which inhibition against PARP1 was half-maximal at 5100 nM (IC50).
In the case of `O=C(CCc1nc2ccccc2c(=O)[nH]1)N[C@H]1CC[C@H](c2nnc(-c3ccc(F)cc3)o2)CC1` [Example 127, N-((1r,4r)-4-(5-(4-fluorophenyl)-1,3,4-oxadiazol-2-yl)cyclohexyl)-3-(4-oxo-3,4-dihydroquinazolin-2-yl)propanamide], in assay [1], the EC50 worked out at 307 nM. Also, the IC50 amounted to 2310 nM at PARP2, 12.7 nM in assay [3], 157 nM in assay [2] and 1970 nM against PARP1.
The like results for `O=C(CCc1nc2ccccc2c(=O)[nH]1)N[C@H]1CC[C@H](c2nnc(-c3ccccc3Cl)o2)CC1` [Example 128, N-((1r,4r)-4-(5-(2-chlorophenyl)-1,3,4-oxadiazol-2-yl)cyclohexyl)-3-(4-oxo-3,4-dihydroquinazolin-2-yl)propanamide] were, in that order, 1750 nM, 276 nM, 81.3 nM, 592 nM and 3890 nM.
On to `O=C(CCc1nc2ccccc2c(=O)[nH]1)N[C@H]1CC[C@H](c2nnc(-c3ccccn3)o2)CC1` [Example 131, 3-(4-oxo-3,4-dihydroquinazolin-2-yl)-N-((1r,4r)-4-(5-(pyridin-2-yl)-1,3,4-oxadiazol-2-yl)cyclohexyl)propanamide], for which the EC50 in assay [1] was found to be 12100 nM. Moreover, the IC50 in assay [3] is 187 nM; in assay [2], 1770 nM; at PARP1 it was 5650 nM.
Turning to `O=C(CCc1nc2ccccc2c(=O)[nH]1)N[C@H]1CC[C@H](c2nnc(-c3ccncc3)o2)CC1` [Example 132, 3-(4-oxo-3,4-dihydroquinazolin-2-yl)-N-((1r,4r)-4-(5-(pyridin-4-yl)-1,3,4-oxadiazol-2-yl)cyclohexyl)propanamide], the half-inhibitory concentration (IC50) stood at 2640 nM at PARP2, 488 nM in assay [2] and 2450 nM against PARP1.
The like results for `O=C(CCc1nc2ccccc2c(=O)[nH]1)N[C@H]1CC[C@H](c2nnc(-c3ncccn3)o2)CC1` [Example 133, 3-(4-oxo-3,4-dihydroquinazolin-2-yl)-N-((1r,4r)-4-(5-(pyrimidin-2-yl)-1,3,4-oxadiazol-2-yl)cyclohexyl)propanamide] were, in that order, 1870 nM, greater than 10000 nM and 4620 nM.
For `N#Cc1ccc(-c2nnc([C@H]3CC[C@H](NC(=O)CCc4nc5ccccc5c(=O)[nH]4)CC3)o2)cc1` [Example 134, N-((1r,4r)-4-(5-(4-cyanophenyl)-1,3,4-oxadiazol-2-yl)cyclohexyl)-3-(4-oxo-3,4-dihydroquinazolin-2-yl)propanamide], the IC50 against PARP2 amounted to 2110 nM; in assay [3] it was 14.2 nM; in assay [2] it was 253 nM.
Regarding `O=C(CCc1nc2ccccc2c(=O)[nH]1)N[C@H]1CC[C@H](c2nnc(C3CCCCC3)o2)CC1` [Example 138, N-((1r,4r)-4-(5-cyclohexyl-1,3,4-oxadiazol-2-yl)cyclohexyl)-3-(4-oxo-3,4-dihydroquinazolin-2-yl)propanamide], the EC50 in assay [1] was greater than 25000 nM. Further, the results for the IC50 against PARP2 and at PARP1 were 2610 nM and 5450 nM, respectively.
Turning to `O=C(CCc1nc2ccccc2c(=O)[nH]1)N[C@H]1CC[C@H](c2nnc(Cc3ccccc3)o2)CC1` [Example 139, N-((1r,4r)-4-(5-benzyl-1,3,4-oxadiazol-2-yl)cyclohexyl)-3-(4-oxo-3,4-dihydroquinazolin-2-yl)propanamide], in assay [1], the EC50 was greater than 25000 nM. The IC50 was found to be 1130 nM at PARP2, 624 nM in assay [3] and 8220 nM at PARP1.
Regarding `O=C(CCc1nc2ccccc2c(=O)[nH]1)N[C@H]1CC[C@H](c2nnc(-c3ccc(Cl)cc3)o2)CC1` [Example 141, N-((1r,4r)-4-(5-(4-chlorophenyl)-1,3,4-oxadiazol-2-yl)cyclohexyl)-3-(4-oxo-3,4-dihydroquinazolin-2-yl)propanamide], the EC50 in assay [1] turned out to be 228 nM. Further, the half-maximal inhibitory concentration (IC50) on PARP2 stood at 677 nM; in assay [2] it was 118 nM.
Consider `O=C(CCc1nc2ccccc2c(=O)[nH]1)N[C@H]1CC[C@H](c2nnc(-c3cnccn3)o2)CC1` [Example 142, 3-(4-oxo-3,4-dihydroquinazolin-2-yl)-N-((1r,4r)-4-(5-(pyrazin-2-yl)-1,3,4-oxadiazol-2-yl)cyclohexyl)propanamide], for which the EC50 in assay [1] is 6490 nM. Moreover, the values for the IC50 (on PARP2; in assay [3]; at PARP1) were 1700 nM, 203 nM and 5470 nM, respectively.

The record behind these values is patent publication US9505749B2, “Quinazolinone compounds and derivatives thereof” (AMGEN INC., priority 2012, dated 2016).
